Source: paper PMC8213057, “Targeting ALK2: An Open Science Approach to Developing Therapeutics for the Treatment of Diffuse Intrinsic Pontine Glioma” (Journal of Medicinal Chemistry, 2020)

Assays:
SNRK = biological target: T1, SNRK (Homo sapiens, UniProt Q9NRH2); experiment: biochemical; conditions: read-out: % enzyme activity, 1 μM; Run 1, Run 2
T1 sequence (Q9NRH2 1-765): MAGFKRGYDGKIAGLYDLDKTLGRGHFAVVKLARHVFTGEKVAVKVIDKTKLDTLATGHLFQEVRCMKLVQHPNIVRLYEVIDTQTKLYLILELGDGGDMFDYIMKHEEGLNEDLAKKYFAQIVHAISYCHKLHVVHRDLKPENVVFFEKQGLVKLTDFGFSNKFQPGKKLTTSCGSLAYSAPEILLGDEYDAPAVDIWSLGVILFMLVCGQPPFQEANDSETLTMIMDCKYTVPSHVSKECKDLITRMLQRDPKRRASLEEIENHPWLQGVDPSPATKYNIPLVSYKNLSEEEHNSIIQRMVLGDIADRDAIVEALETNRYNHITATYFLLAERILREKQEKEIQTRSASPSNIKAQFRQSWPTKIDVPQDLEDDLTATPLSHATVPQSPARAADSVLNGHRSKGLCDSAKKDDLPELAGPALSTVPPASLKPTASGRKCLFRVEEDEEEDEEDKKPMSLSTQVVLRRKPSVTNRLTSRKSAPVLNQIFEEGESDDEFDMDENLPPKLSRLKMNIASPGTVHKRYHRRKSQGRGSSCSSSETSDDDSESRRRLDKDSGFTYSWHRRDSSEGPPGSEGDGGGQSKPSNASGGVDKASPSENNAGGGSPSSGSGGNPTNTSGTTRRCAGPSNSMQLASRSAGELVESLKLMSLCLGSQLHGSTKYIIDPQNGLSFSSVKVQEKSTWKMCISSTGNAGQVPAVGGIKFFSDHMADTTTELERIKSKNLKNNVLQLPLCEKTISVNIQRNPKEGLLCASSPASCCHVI

CK1G3 = CK1G3 (Homo sapiens, UniProt Q9Y6M4); conditions: 1 μM; Run 1, Run 2
MEK1 = MEK1 (Homo sapiens, UniProt Q02750); experiment: biochemical; conditions: read-out: % enzyme activity, 1 μM; Run 1, Run 2
CDK5/P25 = CDK5/P25 (Homo sapiens, UniProt Q00535); conditions: 1 μM; Run 1, Run 2
NEK2 = biological target: T2, NEK2 (Homo sapiens, UniProt P51955); conditions: 1 μM; Run 1, Run 2
T2 sequence (P51955 1-445): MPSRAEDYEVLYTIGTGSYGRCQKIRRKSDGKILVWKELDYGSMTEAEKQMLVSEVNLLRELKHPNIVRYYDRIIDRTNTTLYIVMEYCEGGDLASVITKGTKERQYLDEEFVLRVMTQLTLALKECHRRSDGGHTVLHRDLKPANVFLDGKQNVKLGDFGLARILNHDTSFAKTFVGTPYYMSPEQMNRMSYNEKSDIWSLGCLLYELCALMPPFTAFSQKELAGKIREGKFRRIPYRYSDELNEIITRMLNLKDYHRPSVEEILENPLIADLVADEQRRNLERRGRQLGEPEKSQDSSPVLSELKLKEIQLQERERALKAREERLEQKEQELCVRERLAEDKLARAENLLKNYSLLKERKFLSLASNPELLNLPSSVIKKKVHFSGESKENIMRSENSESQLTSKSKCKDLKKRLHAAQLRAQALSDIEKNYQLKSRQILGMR

CAMKK1 = CAMKK1 (Homo sapiens, UniProt Q8N5S9); conditions: 1 μM; Run 1, Run 2
Haspin = biological target: T3, Haspin (Homo sapiens, UniProt Q8TF76); conditions: 1 μM; Run 1, Run 2
T3 sequence (Q8TF76 1-798): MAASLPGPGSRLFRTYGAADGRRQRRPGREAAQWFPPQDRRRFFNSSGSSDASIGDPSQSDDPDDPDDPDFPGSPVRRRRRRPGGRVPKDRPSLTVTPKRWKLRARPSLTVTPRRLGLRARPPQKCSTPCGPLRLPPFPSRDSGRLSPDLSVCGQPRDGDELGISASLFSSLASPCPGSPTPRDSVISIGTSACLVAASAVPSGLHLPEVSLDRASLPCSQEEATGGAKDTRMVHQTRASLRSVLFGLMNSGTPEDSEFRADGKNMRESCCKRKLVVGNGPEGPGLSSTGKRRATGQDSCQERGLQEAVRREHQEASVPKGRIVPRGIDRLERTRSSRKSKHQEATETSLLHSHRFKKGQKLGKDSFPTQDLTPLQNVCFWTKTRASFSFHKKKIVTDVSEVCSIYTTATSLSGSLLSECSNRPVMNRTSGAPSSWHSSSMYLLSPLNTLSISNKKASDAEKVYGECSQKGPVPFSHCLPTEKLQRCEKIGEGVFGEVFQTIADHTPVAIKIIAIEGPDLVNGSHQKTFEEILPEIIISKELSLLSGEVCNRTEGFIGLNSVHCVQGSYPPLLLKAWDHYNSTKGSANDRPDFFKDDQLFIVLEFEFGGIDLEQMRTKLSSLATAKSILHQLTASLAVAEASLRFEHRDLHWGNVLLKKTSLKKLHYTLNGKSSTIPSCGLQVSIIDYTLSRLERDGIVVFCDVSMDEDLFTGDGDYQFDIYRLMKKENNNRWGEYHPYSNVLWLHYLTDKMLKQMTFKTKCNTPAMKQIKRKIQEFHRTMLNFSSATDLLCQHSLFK

TEC = biological target: T4, TEC (Homo sapiens, UniProt P42680); experiment: biochemical; conditions: read-out: % enzyme activity, 1 μM; Run 1, Run 2
T4 sequence (P42680 1-631): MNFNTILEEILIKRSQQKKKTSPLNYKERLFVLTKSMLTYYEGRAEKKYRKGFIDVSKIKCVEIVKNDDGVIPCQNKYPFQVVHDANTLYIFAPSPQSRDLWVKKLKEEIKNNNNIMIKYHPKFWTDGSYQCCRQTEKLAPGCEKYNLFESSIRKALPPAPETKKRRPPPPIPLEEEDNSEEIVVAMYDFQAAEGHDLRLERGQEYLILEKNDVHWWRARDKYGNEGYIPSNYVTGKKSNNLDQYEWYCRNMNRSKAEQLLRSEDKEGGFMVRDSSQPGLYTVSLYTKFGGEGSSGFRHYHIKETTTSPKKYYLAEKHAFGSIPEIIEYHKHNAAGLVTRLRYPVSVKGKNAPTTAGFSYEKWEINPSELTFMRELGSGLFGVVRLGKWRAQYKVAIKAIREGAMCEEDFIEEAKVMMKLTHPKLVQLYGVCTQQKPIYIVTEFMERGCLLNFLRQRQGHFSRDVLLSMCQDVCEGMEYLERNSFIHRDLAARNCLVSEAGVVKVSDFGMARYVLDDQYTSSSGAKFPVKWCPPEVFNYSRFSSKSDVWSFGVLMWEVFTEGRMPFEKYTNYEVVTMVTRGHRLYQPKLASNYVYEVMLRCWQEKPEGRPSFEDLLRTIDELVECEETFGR

SYK = SYK (Homo sapiens, UniProt P43405); experiment: biochemical; conditions: read-out: % enzyme activity, 1 μM; Run 1, Run 2

Sequence of MEK1 (Q02750 whole entry): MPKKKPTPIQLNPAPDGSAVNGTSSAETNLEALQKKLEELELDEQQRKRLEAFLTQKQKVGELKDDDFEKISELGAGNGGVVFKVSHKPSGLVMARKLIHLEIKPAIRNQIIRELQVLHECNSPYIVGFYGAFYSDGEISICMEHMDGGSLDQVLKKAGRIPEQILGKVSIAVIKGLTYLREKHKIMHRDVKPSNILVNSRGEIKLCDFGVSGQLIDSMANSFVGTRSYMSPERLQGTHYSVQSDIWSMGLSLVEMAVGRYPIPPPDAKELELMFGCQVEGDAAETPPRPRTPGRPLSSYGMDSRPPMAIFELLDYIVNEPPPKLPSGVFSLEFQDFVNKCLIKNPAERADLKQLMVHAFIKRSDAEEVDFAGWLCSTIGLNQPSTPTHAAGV
Sequence of CK1G3 (Q9Y6M4 whole entry): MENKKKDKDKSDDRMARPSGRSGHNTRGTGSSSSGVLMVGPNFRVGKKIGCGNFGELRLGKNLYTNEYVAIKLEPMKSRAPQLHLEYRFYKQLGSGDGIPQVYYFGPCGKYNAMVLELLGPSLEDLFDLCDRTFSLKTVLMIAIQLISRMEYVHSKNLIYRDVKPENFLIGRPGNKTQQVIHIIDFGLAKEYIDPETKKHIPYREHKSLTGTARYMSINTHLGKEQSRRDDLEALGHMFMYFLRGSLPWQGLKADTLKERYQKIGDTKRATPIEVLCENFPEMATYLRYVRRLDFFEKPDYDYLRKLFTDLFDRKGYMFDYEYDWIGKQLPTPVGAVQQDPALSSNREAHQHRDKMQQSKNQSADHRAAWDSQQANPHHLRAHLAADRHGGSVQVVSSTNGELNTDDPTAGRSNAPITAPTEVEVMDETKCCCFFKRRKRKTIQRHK
Sequence of CDK5/P25 (Q00535 whole entry): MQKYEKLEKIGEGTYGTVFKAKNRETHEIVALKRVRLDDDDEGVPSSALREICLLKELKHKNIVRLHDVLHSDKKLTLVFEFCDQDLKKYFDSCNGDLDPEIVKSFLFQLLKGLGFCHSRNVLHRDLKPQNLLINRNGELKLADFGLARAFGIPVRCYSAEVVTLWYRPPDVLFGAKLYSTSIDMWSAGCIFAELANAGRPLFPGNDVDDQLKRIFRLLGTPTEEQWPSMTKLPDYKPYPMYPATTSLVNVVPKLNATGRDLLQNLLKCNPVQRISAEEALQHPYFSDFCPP
Sequence of CDK5/P25 (Q15078 99-307 partner limits assumed): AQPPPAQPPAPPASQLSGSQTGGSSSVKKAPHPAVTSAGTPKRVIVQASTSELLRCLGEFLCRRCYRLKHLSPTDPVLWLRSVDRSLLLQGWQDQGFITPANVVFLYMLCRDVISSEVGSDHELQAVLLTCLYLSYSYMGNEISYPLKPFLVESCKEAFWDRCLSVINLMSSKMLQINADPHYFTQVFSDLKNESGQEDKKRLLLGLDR
Sequence of CAMKK1 (Q8N5S9 whole entry): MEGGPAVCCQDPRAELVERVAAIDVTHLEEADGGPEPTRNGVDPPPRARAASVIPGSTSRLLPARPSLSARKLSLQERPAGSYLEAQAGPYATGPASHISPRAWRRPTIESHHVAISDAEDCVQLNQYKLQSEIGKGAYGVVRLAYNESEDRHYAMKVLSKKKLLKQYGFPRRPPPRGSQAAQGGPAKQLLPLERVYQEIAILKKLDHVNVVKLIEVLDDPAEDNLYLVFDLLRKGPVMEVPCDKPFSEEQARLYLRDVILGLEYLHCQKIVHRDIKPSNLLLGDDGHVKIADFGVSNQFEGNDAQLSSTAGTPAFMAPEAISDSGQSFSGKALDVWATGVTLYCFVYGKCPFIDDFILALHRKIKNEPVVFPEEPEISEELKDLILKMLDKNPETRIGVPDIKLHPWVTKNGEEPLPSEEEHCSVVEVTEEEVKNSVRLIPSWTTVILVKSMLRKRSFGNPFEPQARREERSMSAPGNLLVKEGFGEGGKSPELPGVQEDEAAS

COc1cc(-c2cncc(-c3ccc(N4CCN(C)CC4)cc3)c2C)cc(F)c1C(N)=O [Compound 26a, 2-Fluoro-6-methoxy-4-(4-methyl-5-(4-(4-methylpiperazin-1-yl)phenyl)pyridin-3-yl)benzamide]
remaining activity at 1 µM (SNRK): 105% | % enzyme activity (CK1G3): 64.87% | remaining activity at 1 µM (MEK1): 97.5% | % enzyme activity (CDK5/P25): 91.77% | % enzyme activity (NEK2): 90.39% | % enzyme activity (CAMKK1): 92.05% | % enzyme activity (Haspin): 82.77% | remaining activity at 1 µM (TEC): 108% | remaining activity at 1 µM (SYK): 101%

COc1cc(-c2cncc(-c3ccc(N4C[C@@H](C)N(C)[C@@H](C)C4)cc3)c2C)cc(F)c1C(N)=O [Compound 26c, 2-Fluoro-6-methoxy-4-(4-methyl-5-(4-((3R,5S)-3,4,5-trimethylpiperazin-1-yl)phenyl)pyridin-3-yl)benzamide]
remaining activity at 1 µM (SNRK): 100% | % enzyme activity (CK1G3): 77.64% | remaining activity at 1 µM (MEK1): 95.1% | % enzyme activity (CDK5/P25): 94.09% | % enzyme activity (NEK2): 96.23% | % enzyme activity (CAMKK1): 93.52% | % enzyme activity (Haspin): 82.31% | remaining activity at 1 µM (TEC): 106% | remaining activity at 1 µM (SYK): 102%
